Experimental data published in article PMC4669708 (Cell Death & Disease, 2015).

Experiments:
[1] = system: FADD-deficient Jurkat cells; experiment: TNF-α-induced necroptosis, cell viability (CellTiter Glo); assay type: cell-based, human; conditions: 10 ng/ml TNF-α overnight
Protocol: (§1) Cells were seeded in 12-, 24- or 96-well plates at proper cell density. For necroptosis or apoptosis assays, cells were incubated with the indicated compound combinations at concentrations stated for 14–24 h. Smac mimetic and z-VAD-FMK were added 30–60 min before treatment with TNF-α, FasL or TRAIL. Cell viability was determined using CellTiter Glo Luminescent Cell Viability Assay (Promega, Fitchburg, WI, USA) according to the manufacturer's instructions. Luminescence was recorded with a SpectraMax M5Multimode plate reader (Molecular Devices, Sunnyvale, CA, USA). For flow cytometry-based determination of viability, cells were harvested, collected by centrifugation, washed once and resuspended in staining buffer (1 × PBS, 10% FBS). Cells were incubated with 0.5 μg/ml PI for 10 min at room temperature (RT) in the dark. Flow cytometric analyses were performed on an LSR Fortessa (BD Biosciences) and analyzed with FlowJo software version 7.6.3 (Tree Star Inc, Ashland, OR, USA). Cell size was evaluated by forward scatter. PI-negative normal-sized cells were considered living and data were normalized to values of untreated controls.
The compounds were transferred into drug plates by acoustic droplet ejection using an Echo 520 liquid handler (LABCYTE, Sunnyvale, CA, USA). Necroptosis was induced in FADD-deficient Jurkat cells by addition of 10 ng/ml TNF-α immediately before seeding onto drug plates at a density of 1x10^4 cells/well. After 16 h incubation, cell viability was determined using CellTiter Glo Luminescent Cell Viability Assay according to manufacturer's instructions. Data analysis was performed by calculating a percentage of control to normalize for variability across different plates. The signal for the negative control DMSO wells was set to 0%, whereas the wells containing the positive control Nec-1 were put to 100% for each plate individually.

[2] = system: FADD-deficient Jurkat cells; experiment: Drug toxicity, cell viability without TNF-α; assay type: cell-based; conditions: Homo sapiens, 24 h, no TNF-α, CellTiter Glo
Protocol: as §1, with “controls. For detection of apoptosis, cells were resuspended in Annexin V Binding Buffer (BioLegend, San Diego, CA, USA) and stained with 0.5 μg/ml PI and Alexa Fluor 647 Annexin V (BioLegend) according to manufacturer's instructions.” for “controls.”

Jurkat E6.1 cells = experiment: FasL-induced apoptosis, cell viability; assay type: cell-based; conditions: 100 ng/ml human FasL, 24 h; 0.5 μM ponatinib, 5 μM pazopanib
Protocol: as §1, with “controls. For detection of apoptosis, cells were resuspended in Annexin V Binding Buffer (BioLegend, San Diego, CA, USA) and stained with 0.5 μg/ml PI and Alexa Fluor 647 Annexin V (BioLegend) according to manufacturer's instructions.” for “controls.”

endogenous RIPK3 = biological target: T1, endogenous RIPK3 (Homo sapiens, UniProt Q9Y572); experiment: Cellular thermal shift assay (CETSA); assay type: cell-based; conditions: FADD-deficient Jurkat cells, 0.5 μM, 3 h
T1 construct: endogenous in cells; host or cells: FADD-deficient Jurkat I2.1
Protocol: Drug target engagement in cells, causing stabilization of the respective protein, was analyzed essentially as described previously.[55] […] After treatment, cells were collected by centrifugation and resuspended in 1x PBS. The cell suspension was aliquoted into PCR tubes and heated for 3 min at 42, 46, 50, 54, 58 or 62 °C. Subsequently, cells were lysed by three consecutive freeze–thaw cycles using liquid nitrogen. The soluble fraction was separated from precipitated proteins by centrifugation at 13000 r.p.m. and 4 °C for 20 min. The supernatant, containing the soluble proteins, was transferred to a fresh tube and analyzed by immunoblotting.

RIPK3 to MLKL binding = RIPK3 to MLKL binding (Homo sapiens, UniProt Q9Y572); conditions: HT-29 HA-MLKL cells, doxycycline overnight; 0.5 μM ponatinib, 5 μM pazopanib
L929 cells = experiment: TNF-α/z-VAD-FMK-induced necroptosis; assay type: cell-based, murine; conditions: Supplementary Figures 3c, d
Protocol: as §1, with “controls. For detection of apoptosis, cells were resuspended in Annexin V Binding Buffer (BioLegend, San Diego, CA, USA) and stained with 0.5 μg/ml PI and Alexa Fluor 647 Annexin V (BioLegend) according to manufacturer's instructions.” for “controls.”

[3] = system: FADD-deficient Jurkat cells; experiment: Flow cytometry viability (propidium iodide / forward scatter), TNFα-induced necroptosis; assay type: cell-based; conditions: human, 6 h
Protocol: as §1, with “controls. For detection of apoptosis, cells were resuspended in Annexin V Binding Buffer (BioLegend, San Diego, CA, USA) and stained with 0.5 μg/ml PI and Alexa Fluor 647 Annexin V (BioLegend) according to manufacturer's instructions.” for “controls.”

HT-29 MLKL S358D cells = experiment: Cell death driven by doxycycline-induced MLKL S358D expression; assay type: cell-based, human; conditions: 2 μg/ml doxycycline overnight; 10 μM NSA, 0.5 μM ponatinib
Protocol: as §1, with “controls. For detection of apoptosis, cells were resuspended in Annexin V Binding Buffer (BioLegend, San Diego, CA, USA) and stained with 0.5 μg/ml PI and Alexa Fluor 647 Annexin V (BioLegend) according to manufacturer's instructions.” for “controls.”

Chain of RIPK3 to MLKL binding (Q9Y572 whole entry): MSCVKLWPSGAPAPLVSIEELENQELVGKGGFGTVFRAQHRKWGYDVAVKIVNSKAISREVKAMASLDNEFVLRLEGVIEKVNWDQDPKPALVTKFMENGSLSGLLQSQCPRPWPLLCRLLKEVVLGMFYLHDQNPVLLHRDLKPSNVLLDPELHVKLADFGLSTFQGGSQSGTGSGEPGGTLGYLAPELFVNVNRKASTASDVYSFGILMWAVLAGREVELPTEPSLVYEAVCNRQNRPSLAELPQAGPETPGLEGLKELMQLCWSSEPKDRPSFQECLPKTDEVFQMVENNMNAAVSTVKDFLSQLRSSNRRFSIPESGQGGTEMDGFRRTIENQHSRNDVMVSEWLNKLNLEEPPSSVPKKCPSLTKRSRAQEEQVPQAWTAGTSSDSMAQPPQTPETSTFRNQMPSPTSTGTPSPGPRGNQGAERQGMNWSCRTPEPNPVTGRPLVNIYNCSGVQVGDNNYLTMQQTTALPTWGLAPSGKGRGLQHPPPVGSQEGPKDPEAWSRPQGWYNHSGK
T1 sequence (Q9Y572 whole entry): as above

SMILES	block of necroptosis compared with ponatinib ([1]; Figure 3b)	IC50 [2]	inhibition of apoptotic cell death triggered by FasL (Jurkat E6.1 cells)	rescue of cell viability in drug screen ([1]; 0.5 and 1.5 μM)	EC50 ([1]; Homo sapiens, Jurkat, CellTiter Glo, read-out: EC50 for inhibiting necroptosis)	RIPK3 thermostability (target engagement) (endogenous RIPK3)	binding of RIPK3 to MLKL (RIPK3 to MLKL binding)	protection from necroptosis (L929 cells)	viable cells [3]	block of cell death driven by MLKL S358D expression (HT-29 MLKL S358D cells)
Cc1ccc(C(=O)Nc2ccc(CN3CCN(CCCN)CC3)c(C(F)(F)F)c2)cc1C#Cc1cnc2cccnn12 [c-ponatinib]	blocked necroptosis with only a minor reduction in potency									
Cc1ccc(C(=O)Nc2ccc(CN3CCN(C)CC3)c(C(F)(F)F)c2)cc1C#Cc1cnc2cccnn12 [ponatinib, Ponatinib]		1600 nM	none of the drugs inhibited apoptotic cell death	robustly rescued cell viability at both concentrations	89 nM	led to a shift in the RIPK3 thermostability curve	efficiently blocked binding of RIPK3 to MLKL	the effect was partial and confined to a small dosage window around 100 nM	79,3%	did not prevent cell death
